The record followed here is publication PMC10141580, “Cyclic Dichalcogenides Extend the Reach of Bioreductive Prodrugs to Harness Thiol/Disulfide Oxidoreductases: Applications to seco-Duocarmycins Targeting the Thioredoxin System” (ACS Central Science, 2023).

Data set [1] relates to athymic nu/nu NMRI mice with BxPC-3 tumors. The data set is described as follows: BxPC-3-bearing tolerability study. The data set is classed as in vivo, mouse. The note with it: twice weekly 3 mg/kg, five injections, BxPC-3-bearing NMRI mice. An excerpt:
A larger study was run in 50 athymic nu/nu NMRI mice (10 animals per group) inoculated with BxPC-3 pancreatic cancer cells since the study had been intended as a therapeutic efficacy trial (see section 2.9). Similarly solubilized SS66C derivatives were now included. In this study, the tumor growth rates in all animals were much lower than in any previous or subsequent trials (Figure S16c), so we could only extract data about drug tolerability, not antitumor efficacy. Still, the study confirmed that the solubilized P-SS60-, Me-SS66C-, and P-SS66C- prodrugs of -CBI-TMI, and the corresponding carbamate hydrolysis control P-CC60-CBI-TMI, were tolerated with twice weekly injections at 3 mg/kg, over a course of five injections, in all animals, since no distinct differences of body weight or animal health were seen as compared to the vehicle control (Figure S16a).
a Body weights b Body weights
$ Absolute Tumour Volumes d Absolute Tumour Volumes
Irinotecan Irinotecan Irinotecan Irinotecan
(a,b) Bodyweights (means);
confidence interval). […] Dotted vertical lines indicate days

A further data set concerns A549 cells. The data set is described as follows: Resazurin cytotoxicity assay, A549, 72 h. Conditions: read-out: IC50(nM): A549. In general terms: The colour change of resazurin is a common sign of viable cells or microbes.
A further data set concerns 4T1 murine breast cancer. The data set is described as follows: 4T1 orthotopic breast cancer efficacy study. The data set is classed as in vivo. The note with it: 4T1 in Balb/c mice; CBI prodrugs 3 mg/kg. An excerpt: (§1) We then moved to in vivo anticancer efficacy trials of these prodrugs. […] As one model we chose the syngeneic murine breast cancer 4T1, implanted orthotopically (at the native tissue site) into the fat pad of immunocompetent Balb/c mice (i.e., offering a realistic immune system and tumor microenvironment). This model gives rapid, aggressive tumor growth.[52] As a second model, we chose to xenograft human BxPC-3 pancreatic adenocarcinoma cells into immunodeficient hosts. This is a slower-growing model, with low metastasis, that can be more resistant to traditional antimitotic therapy.[53],[54] Mice were implanted, randomized once tumors reached 100–150 mm^3 volume, and treated once or twice weekly with prodrug or control compounds typically at 3 mg/kg (8–12 animals per condition, Figure 10a). Tumors were measured by caliper during the assay and weighed at termination.
7. 2. in vivo efficacy mouse studies
4T1 efficacy study BxPC-3 efficacy study a Absolute tumour volumes b Absolute tumour volumes […]
days after tumor implantation days after tumor implantation c Relative tumour volumes d Relative tumour volumes […]
e RTV! fi"al day of followu# f ex viv tumour weights g RTV! fi"al day of followu# h ex viv tumour weights (. mice remain in all *roups) (for animals left at day 31)(all *roups have statistical power)(day "2/ all animals left) […]
vehicle(1x)(1x)(1x) (2x)(2x) […]
P-##"0-#$%-&'%P-!!"0-#$%-&'%P-!!"0-#$%-()%P-!!"0-#$%-&'% %rinotecan %rinotecan P-##"0-#$%-&'%P-!!"0-#$%-()%P-!!"0-#$%-&'%P-!!"0-#$%-&'% P-!!"0-#$%-&'% P-!!"0-#$%-&'% […]
i Body weights $ Body weights […]
implant in Balb/c mice, 8 mice per group; (b, d,g,h,j): BxPC-3 subcutaneous xenograft in NMRi mice, 8 mice per […]
treatment (m e d ia n); (e,g) in vivo caliper measurement of relative tum or volumes at final day of followup [last day when all mice in all groups remain in the study] […]
tumor weights at termination of study (only mice not terminated on ethical grounds before the indicated days were harvested); (i,j) Bodyweights (means).
(BxPC-3 study); dotted vertical lines indicate days of [potential] treatment.

The next data set deals with Balb/c mice. The data set is described as follows: Moderate repeated dosing tolerability study. It counts as in vivo. Conditions: once weekly.
Data set [2] concerns human BxPC-3 pancreatic adenocarcinoma. The data set is described as follows: BxPC-3 xenograft efficacy study. It counts as in vivo, athymic nu/nu NMRI mice.
Excerpt: as §1
Finally, we tested P-SS60-CBI-TMI in the slower-growing pancreatic cancer model BxPC-3 in athymic NMRI mice (8 animals per group). […]

Where two headings read alike, the source gives them in different places.

Protocol for A549 cells: We used A549 lung cancer and HeLa cervical cancer cell lines for initial screening of the prodrugs.
Fi gure S9: Cell ular resazurin-based cytotoxi ci ty as s a y.
Dose -response curves were calculated from at least 27 incremental single concentrations over a range
of at least three log units. Individual experiments with annotated experiment numbers are shown for each prodrug
Protocol for Balb/c mice: Next, a moderate repeated dosing study in Balb/c mice (3 animals per group) tested the importance of solubilizing the prodrugs.
Methods for in vivo animal studies
All in vivo studies were conducted as contract research together with React ionBiology Eur ope G mbH (Freiburg,
Germany), EPO – Experimental Pharmacology & Oncology GmbH (Berlin, Germany); Bient a/ Enam ine Lt d. (Kyiv,
Ukraine) and Leit at – Managing Technologies (Barcelona, Spain), adhering to the respective animal welfare
Mice were kept in individually ventilated cages at constant temperature (22±2 °C, air-conditioned) and humidity (45
– 65%), under optimum hygienic conditions with 10 – 15 air changes per hour. A cycle of 12 h artificial fluorescent
light ning and 12 h darkness was applied , and animal behavior was monitored daily throughout the studies. The
animals received food and water ad libit um.
To evaluate toxicity of selected compounds, dose level selection studies within dose range from 0.1 mg/kg to
10 mg/kg were performed by intravenous administration into Balb /c mice. Each dose for each tested compound
was administered in one mouse.
changes and clinical signs of gross toxicity three tim es per week for 21 consecutive days of post-dosing period.
After the first week of observation without adverse events, two doses for each test compound were selected as
tolerated. These two doses were tested in two additional mice for confirmation of toler ability. Additional animals
consecutive days of post-dosing period. Toxicity of repeated administrations was tested wit h t hr ee repeat ed pr e-
selected doses at a dosing interval of 7 days. Mortality, body weight changes, and clinical signs of gross toxicity
were monitored after each drug administration and three times per week for 21 consecutive days after the first
compound administration. Bleed ing with subsequent hematological tests, clinical chemistry parameters analysis
(ALT, AST, ALP, LDH, creatine kinase, creatinine, urea, cholesterol, and triglycerides), and necropsy with
macroscopic inspection were performed on the terminal day of the repeated dosing-regime.
To test tolerability of selected compounds in vivo, female BALB/c mice were randomized by weight into seven
groups of t hree animals.

As a reminder, the IC50 is the concentration that inhibits the measured activity by half. On to `COc1cc2cc(C(=O)N3CC(CCl)c4c3cc(OC(=O)N3CCN(C)C5CSSCC53)c3ccccc43)[nH]c2c(OC)c1OC` (mixture of isomers) [Me-SS66C-CBI-TMI], for which the tolerability entry in data set [1] was “tolerated”. Besides, the IC50 in the data set on A549 cells was 17 nM.

Take `COc1cc2cc(C(=O)N3CC(CCl)c4c3cc(OC(=O)N3CCN(C)C5CSSCC53)c3ccccc43)[nH]c2c(OC)c1OC` (mixture of isomers) [Me-SS66T-CBI-TMI]: the IC50 in the data set on A549 cells was determined as 5.9 nM.

Consider `COc1cc2cc(C(=O)N3C[C@@H](CCl)c4c3cc(OC(=O)N(CCC(=O)N3CCN(C)CC3)C3CCCCC3)c3ccccc43)[nH]c2c(OC)c1OC` [P-CC60-CBI-TMI], for which, in data set [1], the tolerability entry is on record as “tolerated”. Further, in the data set with 4T1 murine breast cancer, the “effect on tumor growth” value is given as “delayed tumor growth in the first week of treatment”. In the data set with A549 cells, the 50% inhibitory concentration (IC50) was found to be 1700 nM.

For `COc1cc2cc(C(=O)N3C[C@@H](CCl)c4c3cc(OC(=O)N(CCC(=O)N3CCN(C)CC3)[C@H]3CCSSC3)c3ccccc43)[nH]c2c(OC)c1OC` [P-SS60-CBI-TMI], in the data set on Balb/c mice, the “outcome of repeated dosing at 3 mg/kg” value is given as “tolerated”. Also, the tolerability result in data set [1] is “tolerated”. Besides, the “effect on tumor growth” value in the data set with 4T1 murine breast cancer is “maintained statistically significant tumor suppression until study termination”. Moreover, the “tumor suppression vs irinotecan” value in data set [2] (BxPC-3, 3 mg/kg vs irinotecan 10 mg/kg) is listed as “almost identical tumor suppression”. For the same molecule, the “tumor growth rate suppression” value in data set [2] (BxPC-3, once-weekly 3 mg/kg, over 4 weeks) is “ca. 70%”. Besides, in the data set on A549 cells, the IC50 is 180 nM.

Regarding `COc1cc2cc(C(=O)N3C[C@@H](CCl)c4c3cc(OC(=O)N3CCN(C(=O)CCC(=O)N5CCN(C)CC5)[C@H]5CSSC[C@H]53)c3ccccc43)[nH]c2c(OC)c1OC` [P-SS66C-CBI-TMI], the tolerability entry in data set [1] is listed as “tolerated”. Further, in the data set on A549 cells (Homo sapiens), the IC50 was 12 nM.
